Here are results for ten molecules from patent US20100144683A1, “METHODS FOR GENERATING MAMMALIAN MODELS OF ATOPIC DISEASES, AND SCREENING FOR THEIR TREATMENT” (ASSOCIATION POUR LA RECHERCHE A L'IGBMC (ARI), priority 2006, published 2010).

For data set [1], the system named is ears of CD1 wildtype (WT) mice. As to the kind of experiment: AD-like phenotype upon long-term ear topical treatment (appearance, histology, IHC). Format: in vivo, mouse. The text has this:
White arrows point to the dermal/epidermal junction. FIGS. 2a and b show the ear appearance at day 17 after ethanol and MC903 treatment, respectively. FIGS. 2c and d show hematoxylin and eosin-stained (HE) ear sections of ethanol- and MC903-treated mice at day 17, respectively. Eosinophil-selective cytoplasmic red staining is pointed by arrows in the inset of (d). FIG. 2 u show hematoxylin and eosin-stained (HE) ear sections of ethanol- and 1α,25(OH)2D3 treated mice every second day, at a dose of 0.25 nmole, at day 18 (D18). FIGS. 2 e to n show the result of IHC performed on ear sections from ethanol- or MC903-treated mice at D17, with antibodies against GR1 (e and f), CD3 (g and h), CD4 (i and j), CD8 (k and l) and CD11c (m and n). Yellow color corresponds to staining of antibodies, whereas blue corresponds to DAPI staining of nuclei. FIGS. 2 o and p show the Toluidin blue (TB)-staining of ear sections. Red arrows point to one of the mast cells with intense blue color in the dermis.

Data set [2] deals with TSLP. As to the kind of experiment: TSLP RNA level (Q-PCR) in skin and organs after topical application of NR agonists. As to conditions: for TSLP RNA levels in ears at D18: 0.25 nmole per ear every second day, WT mice; for dose dependence of TSLP transcripts: increasing doses (MC903: 0.4, 1 or 4 nmoles per ear). The class given is in vivo, mouse.
The nature of data set [3]: Calcemia and overall health upon topical application. Format: in vivo. The following applies: 4 nmoles topically on ears, 4 consecutive days. The procedure: 1α,25-(OH)2D3, or MC903 and ethanol (vehicle) were applied to WT mouse right and left ears, respectively. Two shaved areas (1 cm^2 each) of dorsal skin were also treated with MC903 or ethanol. […]
Data set [4] deals with TSLP. As to the kind of experiment: TSLP RNA level (Q-PCR) in skin and organs after topical application of NR agonists. As to conditions: for increase in TSLP transcripts at D5 / effect on TSLP expression (Q-PCR): 4 nmoles in ethanol topically on whole ears of CD1 WT mice, D1 to D4, Q-PCR on day 5. Format: in vivo, mouse. The procedure: Four nmoles of ligands dissolved in ethanol were topically applied to whole ears of 6-8-week-old female CD1 wildtype (WT) mice for 4 consecutive days (D1 to D4), and TSLP RNA levels were determined on day 5.
1α,25-(OH)2D3, or MC903 and ethanol (vehicle) were applied to WT mouse right and left ears, respectively. Two shaved areas (1 cm^2 each) of dorsal skin were also treated with MC903 or ethanol.

For data set [5], the system named is MC903-induced TSLP expression. As to the kind of experiment: RAR antagonist on MC903-induced TSLP RNA in ears. The class given is in vivo, mouse. The following applies: BMS493 2.5 nmoles with MC903 1.25 nmoles, daily on ears of CD1 WT mice, D3. The procedure: The RAR antagonist BMS493 (2.5 nmoles) with ethanol and with or without MC903 (1.25 nmoles) was daily topically-applied to ears of 6-8-week-old female CD1 (WT) mice. TSLP RNA levels in the ears were measured at D3.

Data set [6] has as its system ears of CD1 wildtype (WT) mice. As to the kind of experiment: AD-like phenotype upon long-term ear topical treatment (appearance, histology, IHC). The following applies: topical treatment with the RAR agonist alone. Format: in vivo, mouse.

In the case of `C=C1/C(=C\C=C2/CCC[C@]3(C)[C@@H]([C@H](C)CCCC(C)(C)O)CC[C@@H]23)C[C@@H](O)C[C@@H]1O` [1α,25-(OH)2D3, 1,25-Dihydroxyvitamin D3], the ear appearance result in data set [1] (MC903 4 nmoles daily or 1α,25(OH)2D3 0.25 nmole every second day, from D5, D17) is “reddening and swelling, that worsened with time”. Besides, the “ear histology (hematoxylin/eosin)” value in data set [1] (MC903 4 nmoles daily, D17, 1α,25-(OH)2D3 0.25 nmole every other day, D18) is “inflammatory infiltrate comprising CD4+ T lymphocytes, dendritic cells, eosinophils and mast cells”. Besides, the “TSLP RNA levels in ears at D18” value in the data set with TSLP [2] is on record as “significantly induced”; in the data set on TSLP [2] (listed as 1α,25(OH)2D3) it was “increased”. Moreover, in data set [3], the hypercalcemia and survival entry was “hypercalcemia and death of the mice”. The “increase in TSLP transcripts at D5” value in the data set with TSLP [4] is over 300 fold. As for `C[C@H](CCCC(C)(C)O)[C@H]1CC[C@H]2[C@@H]3CC=C4C[C@@H](O)CC[C@]4(C)[C@H]3CC[C@]12C` [25-hydroxycholesterol], the “effect on TSLP expression (Q-PCR)” value in the data set with TSLP [4] was “no effect”. In the case of `CC1(C)CC=C(C#Cc2ccccc2)c2cc(/C=C/c3ccc(C(=O)O)cc3)ccc21` [BMS493, (E)-4-[2-[5,6-Dihydro-5,5-dimethyl-8-(2-phenylethynyl)naphthalene-2-yl]ethen-1-yl]benzoic Acid], the “effect on MC903-induced TSLP expression” value in data set [5] is “down-regulates”. In the case of `CC1(C)CCC(C)(C)c2cc(C3(c4ccc(C(=O)O)cc4)OCCO3)ccc21` [BMS649], the “effect on TSLP expression (Q-PCR)” value in the data set on TSLP [4] is “no effect”. Turning to `CC1(C)CCC(C)(C)c2cc(C(O)C(=O)Nc3ccc(C(=O)O)cc3F)ccc21` (centres unmarked) [BMS961, R- and S-3-fluoro-4-[2-hydroxy-2-(5,5,8,8-tetramethyl-5,6,7,8,-tetrahydro-naphthalen-2-yl)-acetulamino]-benzoic acid], the “AD-like phenotype upon topical treatment on its own” value in data set [6] is “too low to trigger an overt AD-like phenotype”. For the same molecule, the “increase in TSLP transcripts at D5” value in the data set on TSLP [4] turned out to be 5 fold. Moreover, in the data set on TSLP [4] (topical application on mouse ear skin), the “TSLP transcripts upon application on mouse ear skin” value was “significant increase”. Turning to `C=C1/C(=C\C=C2/CCC[C@]3(C)[C@@H]([C@H](C)/C=C/C=C/C(O)(CC)CC)CC[C@@H]23)C[C@@H](O)C[C@@H]1O` [EB1089, 1(S),3(R)-dihydroxy-20(R)-(5′-ethyl-5′-hydroxy-hepta-1′(E),3′(E)-dien-1′-yl)-9,10-secopregna-5(Z),7(E),10(19)-triene], in the data set on TSLP [2], the “dose dependence of TSLP transcripts” value is given as “similarly observed”.

`CC(C)OC(=O)C(C)(C)Oc1ccc(C(=O)c2ccc(Cl)cc2)cc1` [Fenofibrate]: the “effect on TSLP expression (Q-PCR)” value in the data set with TSLP [4] is “no effect”. Same read-out and setting: the entry for `Cc1cc(SCc2sc(-c3ccc(C(F)(F)F)cc3)nc2C)ccc1OCC(=O)O` [GW501516] is “no effect”. On to `C=C1/C(=C\C=C2/CCC[C@]3(C)[C@@H]([C@@H](C)OCCCC(O)(CC)CC)CC[C@@H]23)C[C@@H](O)C[C@@H]1O` [KH1060, 1α,25-(OH),-20-epi-22-oxa-24,26,27-trishomovitamin D], for which the “dose dependence of TSLP transcripts” value with TSLP [2] is on record as “similarly observed”.

Regarding `CN(CCOc1ccc(CC2SC(=O)NC2=O)cc1)c1ccccn1` (centres unmarked) [Rosiglitazone], the “effect on TSLP expression (Q-PCR)” value in the data set on TSLP [4] is “no effect”.
